pIC50: −log10 of the molar value.
Assays:
DOHH2 cells = experiment: Cell proliferation assay (MTS), DOHH2 cells, 120 h; type: cell-based; settings: Homo sapiens, DOHH-2, 120 h
Summary of the method: (§1)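 Treatment lasts 72 h for RS4;11 and 120 h for DOHH2 cells seeded at 5000 per well in serum-containing RPMI-1640. A 2 h MTS step, halted with 10% SDS, precedes dual-wavelength absorbance reading and IC50 fitting.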

RS4;11 cells = experiment: Cell proliferation assay (MTS), RS4;11 cells, 72 h; type: cell-based; settings: Homo sapiens, RS4-11, 72 h
Summary of the method: as §1

Row | Structure (SMILES) | pIC50 (DOHH2 cells) | pIC50 (RS4;11 cells)
1 | CC1(C)CCC(CN2CCN(c3ccc(C(=O)NS(=O)(=O)c4cc5c(c([N+](=O)[O-])c4)N[C@@H](c4ccc(C#N)cc4)CO5)c(Oc4cnc5[nH]ccc5c4)c3)CC2)=C(c2ccc(Cl)cc2)C1 [Example 2-206, (S)-2-((1H-pyrrolo[2,3-b]pyridin-5-yl)oxy)-4-(4-((4′-chloro-5,5-dimethyl-3,4,5,6-tetra-hydro-[1,1′-biphenyl]-2-yl)methyl)piperazin-1-yl)-N-((3-(4-cyanophenyl)-5-nitro-3,4-dihdyro-2H-benzo[b][1,4]oxazin-7-yl)sulfo-nyl)benzamide] | 6.51 | 7.68
2 | CC1(C)CCC(CN2CCN(c3ccc(C(=O)NS(=O)(=O)c4cc5c(c([N+](=O)[O-])c4)N[C@@H](Cc4ccccc4C#N)CO5)c(Oc4cnc5[nH]ccc5c4)c3)CC2)=C(c2ccc(Cl)cc2)C1 [Example 2-208, (S)-2-((1H-pyrrolo[2,3-b]pyridin-5-yl)oxy)-4-(4-((4′-chloro-5,5-dimethyl-3,4,5,6-tetra-hydro-[1,1′-biphenyl]-2-yl)methyl)piperazin-1-yl)-N-((3-(2-cyanobenzyl)-5-nitro-3,4-dihydro-2H-benzo[b][1,4]oxazin-7-yl)sulfo-nyl)benzamide] | 6.96 | 7.77
3 | CC1(C)CCC(c2ccc(Cl)cc2)=C(CN2CCN(c3ccc(C(=O)NS(=O)(=O)c4cc5c(c([N+](=O)[O-])c4)N[C@H](CN4C[C@@H]6C[C@H]4CO6)CO5)c(Oc4cnc5[nH]ccc5c4)c3)CC2)C1 [Example 2-209, 2-((1H-pyrrolo[2,3-b]pyridin-5-yl)oxy)-N-(((R)-3-(((1S,4S)-2-oxa-5-azabicyclo[2.2.1]heptan-5-yl)methyl)-5-nitro-3,4-dihydro-2H-benzo[b][1,4]oxazin-7-yl)sulfonyl)-4-(4-((4′-chloro-4,4-dimethyl-3,4,5,6-tetrahydro-[1,1′-biphenyl]-2-yl)methyl)piperazin-1-yl) benzamide] | 7.46 | 9.00
4 | C[C@@H]1CN(C[C@@H]2COc3cc(S(=O)(=O)NC(=O)c4ccc(N5CCN(CC6=C(c7ccc(Cl)cc7)CCC(C)(C)C6)CC5)cc4Oc4cnc5[nH]ccc5c4)cc([N+](=O)[O-])c3N2)CCN1C1COC1 [Example 2-210, 2-((1H-pyrrolo[2,3-b]pyridin-5-yl)oxy)-4-(4-((4′-chloro-4,4-dimethyl-3,4,5,6-tetrahydro-[1,1′-biphenyl]-2-yl)methyl)piperazin-1-yl)-N-(((R)-3-(((R)-3-methyl-4-(oxetan-3-yl)piperazin-1-yl)methyl)-5-nitro-3,4-dihydro-2H-benzo[b][1,4]oxazin-7-yl)sulfonyl) benzamide] | 7.46 | 8.15
5 | CC1(C)CCC(c2ccc(Cl)cc2)=C(CN2CCN(c3ccc(C(=O)NS(=O)(=O)c4cc5c(c([N+](=O)[O-])c4)N[C@@H](Cc4ccccn4)CO5)c(Oc4cnc5[nH]ccc5c4)c3)CC2)C1 [Example 2-211, (S)-2-((1H-pyrrolo[2,3-b]pyridin-5-yl)oxy)-4-(4-((4′-chloro-4,4-dimethyl-3,4,5,6-tetra-hydro-[1,1′-biphenyl]-2-yl)methyl)piperazin-1-yl)-N-((5-nitro-3-(pyridin-2-ylmethyl)-3,4-dihydro-2H-benzo[b][1,4]oxazin-7-yl)sulfonyl)benzamide] | 7.04 | 7.46
6 | CC1(C)CCC(c2ccc(Cl)cc2)=C(CN2CCN(c3ccc(C(=O)NS(=O)(=O)c4cc5c(c([N+](=O)[O-])c4)N[C@@H](C4CCOCC4)CO5)c(Oc4cnc5[nH]ccc5c4)c3)CC2)C1 [Example 2-212, (S)-2-((1H-pyrrolo[2,3-b]pyridin-5-yl)oxy)-4-(4-((4′-chloro-4,4-dimethyl-3,4,5,6-tetra-hydro-[1,1′-biphenyl]-2-yl)methyl)piperazin-1-yl)-N-((5-nitro-3-(tetrahydro-2H-pyran-4-yl)-3,4-dihydro-2H-benzo[b][1,4]oxazin-7-yl)sulfonyl)benzamide] | 7.57 | 8.10
7 | CC1(C)CCC(c2ccc(Cl)cc2)=C(CN2CCN(c3ccc(C(=O)NS(=O)(=O)c4cc5c(c([N+](=O)[O-])c4)N[C@H](C4CCOCC4)CO5)c(Oc4cnc5[nH]ccc5c4)c3)CC2)C1 [Example 2-213, (R)-2-((1H-pyrrolo[2,3-b]pyridin-5-yl)oxy)-4-(4-((4′-chloro-4,4-dimethyl-3,4,5,6-tetra-hydro-[1,1′-biphenyl]-2-yl)methyl)piperazin-1-yl)-N-((5-nitro-3-(tetrahydro-2H-pyran-4-yl)-3,4-dihydro-2H-benzo[b][1,4]oxazin-7-yl)sulfonyl)benzamide] | 7.39 | 8.10
8 | CC1(C)CCC(CN2CCN(c3ccc(C(=O)NS(=O)(=O)c4cc5c(c([N+](=O)[O-])c4)N[C@H](CC4CCNCC4)CO5)c(Oc4cnc5[nH]ccc5c4)c3)CC2)=C(c2ccc(Cl)cc2)C1 [Example 2-214, (R)-2-((1H-pyrrolo[2,3-b]pyridin-5-yl)oxy)-4-(4-((4′-chloro-5,5-dimethyl-3,4,5,6-tetra-hydro-[1,1′-biphenyl]-2-yl)methyl)piperazin-1-yl)-N-((5-nitro-3-(piperidin-4-ylmethyl)-3,4-dihydro-2H-benzo[b][1,4]oxazin-7-yl)sulfonyl)benzamide] | 6.33 | 7.80
9 | CC1(C)CCC(CN2CCN(c3ccc(C(=O)NS(=O)(=O)c4cc5c(c([N+](=O)[O-])c4)N[C@@H](C4CCC(C)(O)CC4)CO5)c(Oc4cnc5[nH]ccc5c4)c3)CC2)=C(c2ccc(Cl)cc2)C1 (stereo partly drawn) [Example 2-215, (S)-2-((1H-pyrrolo[2,3-b]pyridin-5-yl)oxy)-4-(4-((4′-chloro-5,5-dimethyl-3,4,5,6-tetra-hydro-[1,1′-biphenyl]-2-yl)methyl)piperazin-1-yl)-N-((3-(4-hydroxy-4-methylcyclohex-yl)-5-nitro-3,4-dihydro-2H-benzo[b][1,4]oxazin-7-yl)sulfonyl)benzamide] | 7.19 | 8.52
10 | CC1(C)CCC(CN2CCN(c3ccc(C(=O)NS(=O)(=O)c4cc5c(c([N+](=O)[O-])c4)N[C@@H](CC4CCC(C)(O)CC4)CO5)c(Oc4cnc5[nH]ccc5c4)c3)CC2)=C(c2ccc(Cl)cc2)C1 (stereo partly drawn) [Example 2-216, (S)-2-((1H-pyrrolo[2,3-b]pyridin-5-yl)oxy)-4-(4-((4′-chloro-5,5-dimethyl-3,4,5,6-tetra-hydro-[1,1′-biphenyl]-2-yl)methyl)piperazin-1-yl)-N-((3-((4-hydroxy-4-methylcyclohex-yl)methyl)-5-nitro-3,4-dihydro-2H-benzo [b][1,4]oxazin-7-yl)sulfonyl)benzamide] | 6.57 | 7.89
11 | CC1(C)CCC(CN2CCN(c3ccc(C(=O)NS(=O)(=O)c4cc5c(c([N+](=O)[O-])c4)N[C@@H](CO)CO5)c(Oc4cnc5[nH]ccc5c4)c3)CC2)=C(c2ccc(Cl)cc2)C1 [Example 2-220, (S)-2-((1H-pyrrolo[2,3-b]pyridin-5-yl)oxy)-4-(4-((4′-chloro-5,5-dimethyl-3,4,5,6-tetra-hydro-[1,1′-biphenyl]-2-yl)methyl)piperazin-1-yl)-N-((3-(hydroxymethyl)-5-nitro-3,4-dihydro-2H-benzo[b][1,4]oxazin-7-yl)sulfonyl)benzamide] | 7.44 | 8.10
12 | CC1(C)CCC(CN2CCN(c3ccc(C(=O)NS(=O)(=O)c4cc5c(c([N+](=O)[O-])c4)N[C@@H](CC4CCNCC4)CO5)c(Oc4cnc5[nH]ccc5c4)c3)CC2)=C(c2ccc(Cl)cc2)C1 [Example 2-221, (S)-2-((1H-pyrrolo[2,3-b]pyridin-5-yl)oxy)-4-(4-((4′-chloro-5,5-dimethyl-3,4,5,6-tetra-hydro-[1,1′-biphenyl]-2-yl)methyl)piperazin-1-yl)-N-((5-nitro-3-(piperidin-4-ylmethyl)-3,4-dihydro-2H-benzo[b][1,4]oxazin-7-yl)sulfonyl)benzamide] | 6.32 | 7.52
13 | CC1(C)CCC(CN2CCN(c3ccc(C(=O)NS(=O)(=O)c4cc5c(c([N+](=O)[O-])c4)N[C@H](C4CCN(C(=O)OC(C)(C)C)CC4)CO5)c(Oc4cnc5[nH]ccc5c4)c3)CC2)=C(c2ccc(Cl)cc2)C1 [Example 2-222, tert-btuyl (R)-4-(7-(N-(2-((1H-pyrrolo[2,3-b]pyridin-5-yl)oxy)-4-(4-((4′-chloro-5,5-dimethyl-3,4,5,6-tetrahydro-[1,1′-biphenyl]-2-yl)methyl)piperazin-1-yl)benzoyl)sulfamoyl)-5-nitro-3,4-dihydro-2H-benzo[b][1,4]oxazin-3-yl) piperidine-1-carboxylate] | 8.52 | 7.60
14 | COC(=O)N1CCC([C@@H]2COc3cc(S(=O)(=O)NC(=O)c4ccc(N5CCN(CC6=C(c7ccc(Cl)cc7)CC(C)(C)CC6)CC5)cc4Oc4cnc5[nH]ccc5c4)cc([N+](=O)[O-])c3N2)CC1 [Example 2-223, methyl (R)-4-(7-(N-(2-((1H-pyrrolo[2,3-b]pyridin-5-yl)oxy)-4-(4-((4′-chloro-5,5-dimethyl-3,4,5,6-tetrahydro-[1,1′-biphenyl]-2-yl)methyl)piperazin-1-yl)benzoyl)sulfamoyl)-5-nitro-3,4-dihydro-2H-benzo[b][1,4]oxazin-3-yl) piperidine-1-carboxylate] | 7.96 | 9.00
15 | CC(=O)N1CCC([C@@H]2COc3cc(S(=O)(=O)NC(=O)c4ccc(N5CCN(CC6=C(c7ccc(Cl)cc7)CC(C)(C)CC6)CC5)cc4Oc4cnc5[nH]ccc5c4)cc([N+](=O)[O-])c3N2)CC1 [Example 2-224, (R)-2-((1H-pyrrolo[2,3-b]pyridin-5-yl)oxy)-N-((3-(1-acetylpiperidin-4-yl)-5-nitro-3,4-dihydro-2H-benzo[b][1,4]oxazin-7-yl)sulfo-nyl)-4-(4-((4′-chloro-5,5-dimethyl-3,4,5,6-tetrahydro-[1,1′-biphenyl]-2-yl)methyl)piper-azin-1-yl)benzamide] | 8.52 | 8.40
